Results reported in ChEMBL document CHEMBL5360581, “Discovery of a novel dual functional phenylpyrazole-styryl hybrid that induces apoptotic and autophagic cell death in bladder cancer cells” (Eur J Med Chem, 2023).
Active and inactive are the calls of the source. The rule behind the calls is not given here.

Experiments:
[1] = tested on: EJ-28; experiment: Induction of apoptosis in human EJ-28 cells assessed as downregulation of procaspase-7 expression incubated for 24 to 72 hrs by Western blotting analysis; type: functional, cell-based; conditions: time 24-72 hrs
[2] = tested on: EJ-28; experiment: Induction of apoptosis in human EJ-28 cells assessed as upregulation of Bax expression incubated for 48 to 72 hrs by Western blotting analysis; type: functional, cell-based; conditions: time 48-72 hrs
[3] = Toxicity in Zebrafish embryo assessed as body curvature at 12.5 uM administered for 4 hrs post fertilization and measured after 3 days post fertilization; set-up: species or system Danio rerio; conditions: in vivo, 72 h, time 3 day
[4] = tested on: EJ-28; experiment: Antiproliferative activity against human EJ-28 cells assessed as reduction in cell viability at 20 uM measured for 72 hrs by MTT assay; type: functional, cell-based
[5] = tested on: EJ-28; experiment: Induction of autophagy in human EJ-28 cells assessed as increase in green fluorescence intensity at 5 to 12.5 uM incubated for 24 hrs by flow cytometry analysis; type: functional, cell-based; conditions: dose 5-12.5 µM
[6] = Cytotoxicity against human SV-HUC-1 cells assessed as reduction in cell viability at 7.5 uM incubated for 72 hrs by MTT assay; type: toxicity, cell-based; conditions: sv-huc-1, 72 h
[7] = tested on: EJ-28; experiment: Induction of cell cycle arrest in human EJ-28 cells assessed as accumulation of cells at S phase at 2.5 uM incubated for 48 hrs by propidium iodide staining based flow cytometry (reference value: 30%); type: functional
[8] = tested on: EJ-28; experiment: Induction of apoptosis in human EJ-28 cells assessed as upregulation of Bad expression incubated for 48 hrs by Western blotting analysis; type: functional, cell-based
[9] = tested on: EJ-28; experiment: Induction of cell cycle arrest in human EJ-28 cells assessed as accumulation of cells at sub-G0/G1 phase at 5 uM incubated for 48 hrs by propidium iodide staining based flow cytometry (reference value: 48%); type: functional
[10] = tested on: EJ-28; experiment: Induction of cell cycle arrest in human EJ-28 cells assessed as accumulation of cells at G2/M phase at 5 uM incubated for 48 hrs by propidium iodide staining based flow cytometry (reference value: 20%); type: functional
[11] = tested on: MCF7; experiment: Cytotoxicity against human MCF7 cells assessed inhibition of cell growth incubated for 72 hrs by MTT assay; type: functional, cell-based; conditions: MCF7, 72 h
[12] = tested on: EJ-28; experiment: Induction of autophagy in human EJ-28 cells assessed as upregulation of Atg3 expression at 5 to 12.5 uM incubated for 24 to 72 hrs by Western blot analysis; type: functional, cell-based; conditions: dose 5-12.5 µM, time 24-72 hrs
[13] = Toxicity in Zebrafish embryo assessed as adverse phenotype at 12.5 to 50 uM administered for 4 hrs post fertilization and measured after 6 days post fertilization; set-up: species or system Danio rerio; conditions: in vivo, 144 h, dose 12.5-50 µM, time 6 day
[14] = tested on: EJ-28; experiment: Inhibition of colony formation in human EJ-28 cells at 2.5 to 10 uM incubated for 10 days by crystal violet staining based assay; type: functional, cell-based; conditions: dose 2.5-10 µM, time 10.0 day
[15] = Toxicity in Zebrafish embryo assessed as oedema at 12.5 uM administered for 4 hrs post fertilization and measured after 3 days post fertilization; set-up: species or system Danio rerio; conditions: in vivo, 72 h, time 3 day
[16] = tested on: EJ-28; experiment: Anticancer activity against human EJ-28 cells cultured as 3D spheroids assessed as decrease in spheroid volume at 5 to 20 uM measured upto 5 days by fluorescence microscopic analysis; type: functional, cell-based; conditions: dose 5-20 µM, time <= 5.0 day
[17] = tested on: EJ-28; experiment: Induction of apoptosis in human EJ-28 cells assessed as upregulation of Bcl-2 expression incubated for 24 hrs by Western blotting analysis; type: functional, cell-based
[18] = tested on: EJ-28; experiment: Induction of apoptosis in human EJ-28 cells assessed as upregulation of phosphorylated […] level incubated for 24 to 72 hrs by Western blotting analysis; type: functional, cell-based; conditions: time 24-72 hrs
[19] = tested on: EJ-28; experiment: Induction of autophagy in human EJ-28 cells assessed as downregulation of mTOR expression at 5 to 12.5 uM incubated for 24 hrs by Western blot analysis; type: functional, cell-based; conditions: dose 5-12.5 µM
[20] = tested on: EJ-28; experiment: Induction of apoptosis in human EJ-28 cells incubated for 24 to 72 hrs by AnnexinV-FITC/propidium iodide staining based flow cytometry analysis; type: functional, cell-based; conditions: dose 1.25-10 µM, time 24-72 hrs
[21] = tested on: EJ-28; experiment: Induction of cell cycle arrest in human EJ-28 cells assessed as accumulation of cells at sub-G0/G1 phase at 1.25 uM incubated for 48 hrs by propidium iodide staining based flow cytometry (reference value: 48%); type: functional
[22] = tested on: SV-HUC-1; experiment: Induction of morphological changes in human SV-HUC-1 cells at 7.5 uM incubated for 24 to 72 hrs by microscopic analysis; type: functional, cell-based; conditions: time 24-72 hrs
[23] = tested on: EJ-28; experiment: Induction of apoptosis in human EJ-28 cells assessed as upregulation of Bax expression incubated for 24 hrs by Western blotting analysis; type: functional, cell-based
[24] = tested on: T-24; experiment: Induction of morphological changes in human T24 cells assessed as intracellular vacuolization at 7.5 uM incubated for 48 hrs by microscopic analysis; type: functional, cell-based
[25] = tested on: HEK293; experiment: Cytotoxicity against HEK293 cells expressing EGFR assessed as inhibition of cell growth incubated for 24 to 72 hrs; type: toxicity, cell-based; conditions: human, time 24-72 hrs
[26] = tested on: EJ-28; experiment: Induction of apoptosis in human EJ-28 cells assessed as upregulation of Bak expression incubated for 24 hrs by Western blotting analysis; type: functional, cell-based
[27] = tested on: HT-1080; experiment: Antiproliferative activity against human HT-1080 cells assessed as reduction in cell viability at 20 uM measured for 72 hrs by MTT assay; type: functional, cell-based
[28] = tested on: EJ-28; experiment: Induction of apoptosis in human EJ-28 cells at 1.25 to 10 uM by AnnexinV-FITC/propidium iodide staining based flow cytometry analysis; type: functional, cell-based; conditions: dose 1.25-10 µM, time 24-72 hrs, TDE = time-dependent effect
[29] = tested on: EJ-28; experiment: Inhibition of colony formation in human EJ-28 cells at 1.25 uM incubated for 10 days by crystal violet staining based assay; type: functional, cell-based; conditions: time 10.0 day
[30] = tested on: EJ-28; experiment: Induction of apoptosis in human EJ-28 cells assessed as upregulation of phosphorylated Bcl-2 level incubated for 24 to 72 hrs by Western blotting analysis; type: functional, cell-based; conditions: time 24-72 hrs
[31] = tested on: EJ-28; experiment: Induction of apoptosis in human EJ-28 cells assessed as upregulation of cleaved caspases-9 expression by Western blotting analysis; type: functional, cell-based; conditions: time 24-72 hrs
[32] = tested on: EJ-28; experiment: Induction of apoptosis in human EJ-28 cells assessed as downregulation of procaspase-3 expression incubated for 24 to 72 hrs by Western blotting analysis; type: functional, cell-based; conditions: time 24-72 hrs
[33] = Toxicity in Zebrafish embryo assessed as lack of pigmentation at 12.5 uM administered for 4 hrs post fertilization and measured after 3 days post fertilization; set-up: species or system Danio rerio; conditions: in vivo, 72 h, time 3 day
[34] = tested on: SW-620; experiment: Cytotoxicity against human SW620 cells assessed inhibition of cell growth incubated for 72 hrs by MTT assay; type: functional, cell-based; conditions: SW-620, 72 h
[35] = tested on: EJ-28; experiment: Anticancer activity against human EJ-28 cells cultured as 3D spheroids assessed as decrease in spheroid size at 5 to 20 uM measured upto 5 days by fluorescence microscopic analysis; type: functional, cell-based; conditions: dose 5-20 µM, time <= 5.0 day
[36] = Selectivity index, ratio of IC50 for cytotoxicity against human NHDF cells to IC50 for cytotoxicity against human MCF7 cells; type: toxicity, cell-based; conditions: NHDF cells and MCF7 cells, read-out: Ratio IC50
[37] = tested on: EJ-28; experiment: Induction of cell cycle arrest in human EJ-28 cells assessed as accumulation of cells at sub-G0/G1 phase at 2.5 uM incubated for 48 hrs by propidium iodide staining based flow cytometry (reference value: 48%); type: functional
[38] = tested on: EJ-28; experiment: Induction of morphological changes in human EJ-28 cells assessed as intracellular vacuolization at 7.5 uM incubated for 24 to 72 hrs by microscopic analysis; type: functional, cell-based; conditions: time 24-72 hrs

## O=[N+]([O-])c1cccc(/C=C/c2cc(-c3cc(Cl)ccc3O)n(-c3ccccc3)n2)c1
[1]
  Activity: Active
[2]
  Activity: Active
[3]
  Activity: Non-Toxic
[4]
  Activity: Active
[5]
  Activity: Active
[6]
  Activity: Non-Toxic
[7]
  Activity: 16%
[8]
  Activity: Active
[9]
  Activity: 58%
[10]
  Activity: 19%
[11]
  IC50: 8.8 µM
[12]
  Activity: inactive
[13]
  Activity: Non-Toxic
[14]
  inhibition: Active
[15]
  Activity: Non-Toxic
[16]
  Activity: Active
[17]
  Activity: Active
[18]
  Activity: Active
[19]
  Activity: Active
[20]
  Activity: Dose-Dependent Effect
[21]
  Activity: 53%
[22]
  Activity: inactive
[23]
  Activity: inactive
[24]
  Activity: Active
[25]
  Activity: Non-Toxic
[26]
  Activity: Active
[27]
  Activity: Active
[28]
  Activity: Tde
[29]
  inhibition: inactive
[30]
  Activity: Active
[31]
  Activity: Dose-Dependent Effect
[32]
  Activity: Active
[33]
  Activity: Non-Toxic
[34]
  IC50: 10 µM
[35]
  Activity: Active
[36]
  selectivity ratio: 2.6
[37]
  Activity: 57%
[38]
  Activity: Active
